From patent publication US9926281B2 (priority 2014, dated 2018)

What was measured:
[1] = molecular target: rnADAMTS-5 (1-564-6H) (Rattus norvegicus, UniProt Q6TY19); details: read-out: Rat ADAMTS-5 potency IC50
[2] = molecular target: human ADAMTS-5 (Homo sapiens (Human), UniProt Q9UNA0); details: read-out: hADAMTS-5 potency IC50
Procedure: Finally, the fluorescence is read on the Envision (Perkin Elmer) after an incubation of 90 min at 37° C.

[3] = molecular target: human TACE (Homo sapiens (Human), UniProt P78536); details: read-out: TACE potency IC50
[4] = molecular target: human MMP13 (Homo sapiens (Human), UniProt P45452); details: read-out: hMMP-13 potency IC50
Procedure: Human MMP13 is preactivated by incubated the enzyme in the same buffer complemented with 1 mM freshly prepared p-Aminophenylmercuric acetate (AMPA) for 1 hour at 37° C.

human ADAMTS-5, sequence (Q9UNA0 262-930): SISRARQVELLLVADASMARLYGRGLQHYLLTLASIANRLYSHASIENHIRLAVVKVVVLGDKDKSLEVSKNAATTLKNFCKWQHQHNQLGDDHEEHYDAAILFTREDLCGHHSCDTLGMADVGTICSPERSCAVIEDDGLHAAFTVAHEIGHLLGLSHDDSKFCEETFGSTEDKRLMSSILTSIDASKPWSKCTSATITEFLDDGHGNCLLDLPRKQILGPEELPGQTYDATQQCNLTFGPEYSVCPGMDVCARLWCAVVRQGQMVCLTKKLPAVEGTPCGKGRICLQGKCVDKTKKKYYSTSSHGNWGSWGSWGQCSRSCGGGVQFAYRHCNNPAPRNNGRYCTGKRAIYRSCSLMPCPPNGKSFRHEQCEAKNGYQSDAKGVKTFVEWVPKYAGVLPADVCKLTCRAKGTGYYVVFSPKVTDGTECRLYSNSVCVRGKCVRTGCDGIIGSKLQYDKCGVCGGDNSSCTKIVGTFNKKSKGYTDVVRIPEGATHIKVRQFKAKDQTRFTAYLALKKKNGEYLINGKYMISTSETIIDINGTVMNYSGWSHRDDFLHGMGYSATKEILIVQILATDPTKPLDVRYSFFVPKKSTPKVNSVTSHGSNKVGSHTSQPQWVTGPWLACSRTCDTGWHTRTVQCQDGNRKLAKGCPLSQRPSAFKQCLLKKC
human TACE, sequence (P78536 whole entry, looked up, change not shown): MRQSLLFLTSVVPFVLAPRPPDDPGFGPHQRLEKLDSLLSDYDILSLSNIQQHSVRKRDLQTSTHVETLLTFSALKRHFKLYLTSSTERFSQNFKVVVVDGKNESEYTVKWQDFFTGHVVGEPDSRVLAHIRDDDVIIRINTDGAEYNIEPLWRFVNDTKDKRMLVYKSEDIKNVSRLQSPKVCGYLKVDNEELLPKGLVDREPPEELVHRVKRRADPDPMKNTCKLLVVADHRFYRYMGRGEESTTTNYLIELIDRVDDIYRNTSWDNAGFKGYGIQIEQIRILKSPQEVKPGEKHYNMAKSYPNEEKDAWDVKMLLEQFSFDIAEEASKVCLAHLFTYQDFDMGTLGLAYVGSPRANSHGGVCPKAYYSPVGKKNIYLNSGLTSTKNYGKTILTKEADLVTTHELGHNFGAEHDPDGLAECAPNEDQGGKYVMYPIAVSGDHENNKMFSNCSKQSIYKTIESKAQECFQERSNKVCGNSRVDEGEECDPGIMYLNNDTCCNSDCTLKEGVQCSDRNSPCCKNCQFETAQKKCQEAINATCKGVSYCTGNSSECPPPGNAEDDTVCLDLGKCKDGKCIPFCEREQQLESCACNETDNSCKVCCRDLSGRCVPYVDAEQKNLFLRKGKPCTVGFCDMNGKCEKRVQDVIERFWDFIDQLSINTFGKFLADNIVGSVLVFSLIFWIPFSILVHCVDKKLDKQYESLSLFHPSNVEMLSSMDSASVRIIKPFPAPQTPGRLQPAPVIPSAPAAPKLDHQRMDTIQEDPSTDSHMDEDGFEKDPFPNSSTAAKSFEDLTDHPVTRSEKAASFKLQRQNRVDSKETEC

## C[C@@H](C[C@@]1(C)NC(=O)NC1=O)C(=O)N1CCN(c2ccc(F)c(Cl)c2)[C@@H](C)C1 [Cpd 265]
[1]
  IC50: 22 nM
[2]
  IC50: 18 nM
[3]
  IC50: > 4000 nM

## O=C1NC(=O)C(CCC(=O)N2CCN(c3cccc(Cl)c3)CC2)(C2CC2)N1 (stereo not drawn) [compound 34, 5-[3-[4-(3-chlorophenyl)piperazin-1-yl]-3-oxo-propyl]-5-cyclopropyl-imidazolidine-2,4-dione]
[1]
  IC50: 41 nM
[3]
  IC50: > 4000 nM
[4]
  IC50: 3210 nM

## CC(C)C1(CCC(=O)N2CCN(c3cccc(Cl)c3)CC2)NC(=O)NC1=O (stereo not drawn) [compound 53, 5-[3-[4-(3-chlorophenyl)piperazin-1-yl]-3-oxo-propyl]-5-isopropyl-imidazolidine-2,4-dione]
[1]
  IC50: 179 nM
[3]
  IC50: > 4000 nM
[4]
  IC50: > 20000 nM

## Cc1ccc(Cl)cc1N1CCN(C(=O)CCC2(c3ccc(Cl)cc3)NC(=O)NC2=O)CC1 (stereo not drawn) [compound 75, 5-[3-[4-(5-chloro-2-methyl-phenyl)piperazin-1-yl]-3-oxo-propyl]-5-(4-chlorophenyl)imidazolidine-2,4-dione]
[1]
  IC50: 141 nM
[3]
  IC50: 550 nM
[4]
  IC50: > 20000 nM

## Cc1c(Cl)cccc1N1CCN(C(=O)CCC2(C3CC3)NC(=O)NC2=O)CC1 (stereo not drawn) [compound 98, 5-[3-[4-(3-chloro-2-methyl-phenyl)piperazin-1-yl]-3-oxo-propyl]-5-cyclopropyl-imidazolidine-2,4-dione]
[1]
  IC50: 82 nM
[3]
  IC50: > 4000 nM
[4]
  IC50: > 20000 nM

## Cc1c(F)cccc1N1CCN(C(=O)CCC2(C3CC3)NC(=O)NC2=O)CC1 (stereo not drawn) [compound 99, 5-cyclopropyl-5-[3-[4-(3-fluoro-2-methyl-phenyl)piperazin-1-yl]-3-oxo-propyl]imidazolidine-2,4-dione]
[1]
  IC50: 116 nM
[3]
  IC50: > 14700 nM
[4]
  IC50: > 20000 nM

## Cc1c(Cl)cccc1N1CCN(C(=O)CCC2(c3cccnc3)NC(=O)NC2=O)CC1 (stereo not drawn) [compound 102, 5-[3-[4-(3-chloro-2-methyl-phenyl)piperazin-1-yl]-3-oxo-propyl]-5-(3-pyridyl)imidazolidine-2,4-dione]
[1]
  IC50: 94 nM
[3]
  IC50: 3400 nM
[4]
  IC50: > 20000 nM

## O=C1NC(=O)C(CCC(=O)N2CCN(c3cccc(F)c3)CC2)(c2cccnc2)N1 (stereo not drawn) [compound 112, 5-[3-[4-(3-fluorophenyl)piperazin-1-yl]-3-oxo-propyl]-5-(3-pyridyl)imidazolidine-2,4-dione]
[1]
  IC50: 39 nM
[3]
  IC50: > 4000 nM
[4]
  IC50: 1880 nM

## O=C1NC(=O)C(CCC(=O)N2CCN(c3cccc(F)c3)CC2)(C2CC2)N1 (stereo not drawn) [compound 115, 5-cyclopropyl-5-[3-[4-(3-fluorophenyl)piperazin-1-yl]-3-oxo-propyl]imidazolidine-2,4-dione]
[1]
  IC50: 38 nM
[3]
  IC50: > 20000 nM
[4]
  IC50: > 4000 nM

## Cc1ccc(F)cc1N1CCN(C(=O)CCC2(C3CC3)NC(=O)NC2=O)CC1 (stereo not drawn) [compound 116, 5-cyclopropyl-5-[3-[4-(5-fluoro-2-methyl-phenyl)piperazin-1-yl]-3-oxo-propyl]imidazolidine-2,4-dione]
[1]
  IC50: 29 nM
[3]
  IC50: > 4640 nM
[4]
  IC50: > 20000 nM

## CS(=O)(=O)c1ccc(C2(CCC(=O)N3CCN(c4cccc(Cl)c4)CC3)NC(=O)NC2=O)cc1 (stereo not drawn) [compound 124, 5-[3-[4-(3-chlorophenyl)piperazin-1-yl]-3-oxo-propyl]-5-(4-methylsulfonylphenyl)imidazolidine-2,4-dione]
[1]
  IC50: 37 nM
[3]
  IC50: 880 nM
[4]
  IC50: 1280 nM

## C[C@H]1CN(C(=O)CCC2(C3CC3)NC(=O)NC2=O)CCN1c1ccccc1 (stereo partly drawn) [compound 135, 5-cyclopropyl-5-[3-[(3S)-3-methyl-4-phenyl-piperazin-1-yl]-3-oxo-propyl]imidazolidine-2,4-dione]
[1]
  IC50: 125 nM
[3]
  IC50: > 20000 nM
[4]
  IC50: > 20000 nM

## C[C@H]1CN(C(=O)CCC2(c3cccnc3)NC(=O)NC2=O)CCN1c1ccccc1 (stereo partly drawn) [compound 136, 5-[3-[(3S)-3-methyl-4-phenyl-piperazin-1-yl]-3-oxo-propyl]-5-(3-pyridyl)imidazolidine-2,4-dione]
[1]
  IC50: 242 nM
[3]
  IC50: > 20000 nM
[4]
  IC50: > 20000 nM

## C[C@H]1CN(C(=O)CCC2(C3CC3)NC(=O)NC2=O)CCN1c1cc(Cl)cc(Cl)c1 (stereo partly drawn) [compound 142, 5-cyclopropyl-5-[3-[(3S)-4-(3,5-dichlorophenyl)-3-methyl-piperazin-1-yl]-3-oxo-propyl]imidazolidine-2,4-dione]
[1]
  IC50: 54 nM
[3]
  IC50: > 4000 nM
[4]
  IC50: > 20000 nM

## Cc1ccc(F)cc1N1CCN(C(=O)CCC2(C)NC(=O)NC2=O)C[C@@H]1C (stereo partly drawn) [compound 145, 5-[3-[(3S)-4-(5-fluoro-2-methyl-phenyl)-3-methyl-piperazin-1-yl]-3-oxo-propyl]-5-methyl-imidazolidine-2,4-dione]
[1]
  IC50: 563 nM
[3]
  IC50: > 4000 nM
[4]
  IC50: > 20000 nM

## Cc1c(Cl)cc(Cl)cc1N1CCN(C(=O)CCC2(C)NC(=O)NC2=O)C[C@@H]1C (stereo partly drawn) [compound 178, 5-[3-[(3S)-4-(3,5-dichloro-2-methyl-phenyl)-3-methyl-piperazin-1-yl]-3-oxo-propyl]-5-methyl-imidazolidine-2,4-dione]
[1]
  IC50: 344 nM
[2]
  IC50: 577 nM

## O=C1NC(=O)C(CCC(=O)N2CCN(c3cccc(Cl)c3)CC2)(CNCc2ccccc2)N1 (stereo not drawn) [compound 184, 5-[(benzylamino)methyl]-5-[3-[4-(3-chlorophenyl)piperazin-1-yl]-3-oxo-propyl]imidazolidine-2,4-dione]
[1]
  IC50: 280 nM
[2]
  IC50: 272 nM

## N#Cc1cccc(N2CCN(C(=O)CCC3(C4CC4)NC(=O)NC3=O)CC2)c1 (stereo not drawn) [compound 195, 3-[4-[3-(4-cyclopropyl-2,5-dioxo-imidazolidin-4-yl)propanoyl]piperazin-1-yl]benzonitrile]
[1]
  IC50: 262 nM
[2]
  IC50: 318 nM

## COC(CC1(C)NC(=O)NC1=O)C(=O)N1CCN(c2cccc(F)c2)[C@@H](C)C1 (stereo partly drawn) [compound 294, 5-[3-[(3S)-4-(3-fluorophenyl)-3-methyl-piperazin-1-yl]-2-methoxy-3-oxo-propyl]-5-methyl-imidazolidine-2,4-dione]
[1]
  IC50: 128 nM
[2]
  IC50: 134 nM
[3]
  IC50: > 20000 nM

## Cc1c(Cl)cc(Cl)cc1N1CCN(C(=O)C(C)CC2(C)NC(=O)NC2=O)C[C@@H]1C (stereo partly drawn) [compound 423, 5-(3-((S)-4-(3,5-dichloro-2-methylphenyl)-3-methylpiperazin-1-yl)-2-methyl-3-oxopropyl)-5-methylimidazolidine-2,4-dione]
[2]
  IC50: 58 nM
[3]
  IC50: 1470 nM
[4]
  IC50: > 20000 nM

## CC1(CC(COCc2ccccc2)C(=O)N2CCN(c3cc(Cl)cc(Cl)c3)CC2)NC(=O)NC1=O (stereo not drawn) [compound 424, 5-(2-(benzyloxymethyl)-3-(4-(3,5-dichlorophenyl)piperazin-1-yl)-3-oxopropyl)-5-methylimidazolidine-2,4-dione]
[2]
  IC50: 53 nM
[3]
  IC50: > 10800 nM
[4]
  IC50: > 20000 nM

## CC1(CC(CO)C(=O)N2CCN(c3cc(Cl)cc(Cl)c3)CC2)NC(=O)NC1=O (stereo not drawn) [compound 425, 5-(3-(4-(3,5-dichlorophenyl)piperazin-1-yl)-2-(hydroxymethyl)-3-oxopropyl)-5-methylimidazolidine-2,4-dione]
[2]
  IC50: 18 nM
[3]
  IC50: 245 nM
[4]
  IC50: > 4000 nM

## COCC1(CC(C)C(=O)N2CCN(c3cc(Cl)cc(Cl)c3)CC2)NC(=O)NC1=O (stereo not drawn) [compound 427, 5-(3-(4-(3,5-dichlorophenyl)piperazin-1-yl)-2-methyl-3-oxopropyl)-5-(methoxymethyl)imidazolidine-2,4-dione]
[2]
  IC50: 20 nM
[3]
  IC50: 337 nM
[4]
  IC50: > 4000 nM

## COCC1(CC(C)C(=O)N2CCN(c3cc(Cl)cc(Cl)c3)[C@@H](C)C2)NC(=O)NC1=O (stereo partly drawn) [compound 429, 5-(3-((S)-4-(3,5-dichlorophenyl)-3-methylpiperazin-1-yl)-2-methyl-3-oxopropyl)-5-(methoxymethyl)imidazolidine-2,4-dione]
[2]
  IC50: 53 nM
[3]
  IC50: > 3980 nM
[4]
  IC50: > 20000 nM

## COCC1(CC(C)C(=O)N2CCN(c3cccc(Cl)c3C)CC2)NC(=O)NC1=O (stereo not drawn) [compound 433, 5-(3-(4-(3-chloro-2-methylphenyl)piperazin-1-yl)-2-methyl-3-oxopropyl)-5-(methoxymethyl)imidazolidine-2,4-dione]
[2]
  IC50: 21 nM
[3]
  IC50: 1250 nM
[4]
  IC50: > 20000 nM

## CC(CC1(c2ccccn2)NC(=O)NC1=O)C(=O)N1CCN(c2cc(Cl)cc(Cl)c2)CC1 (stereo not drawn) [compound 434, 5-(3-(4-(3,5-dichlorophenyl)piperazin-1-yl)-2-methyl-3-oxopropyl)-5-(pyridin-2-yl)imidazolidine-2,4-dione]
[2]
  IC50: 20 nM
[3]
  IC50: 106 nM
[4]
  IC50: 766 nM

## CCC(CC1(C)NC(=O)NC1=O)C(=O)N1CCN(c2cc(Cl)cc(Cl)c2)CC1 (stereo not drawn) [compound 435, 5-(2-(4-(3,5-dichlorophenyl)piperazine-1-carbonyl)butyl)-5-methylimidazolidine-2,4-dione]
[2]
  IC50: 15 nM
[3]
  IC50: 225 nM
[4]
  IC50: 1220 nM

## COCC(CC1(C)NC(=O)NC1=O)C(=O)N1CCN(c2cc(Cl)cc(Cl)c2)CC1 (stereo not drawn) [compound 436, 5-(3-(4-(3,5-dichlorophenyl)piperazin-1-yl)-2-(methoxymethyl)-3-oxopropyl)-5-methylimidazolidine-2,4-dione]
[2]
  IC50: 22 nM
[3]
  IC50: 368 nM
[4]
  IC50: > 4000 nM

## CC(C)C(CC1(C)NC(=O)NC1=O)C(=O)N1CCN(c2cc(Cl)cc(Cl)c2)CC1 (stereo not drawn) [compound 438, 5-(2-(4-(3,5-dichlorophenyl)piperazine-1-carbonyl)-3-methylbutyl)-5-methylimidazolidine-2,4-dione]
[2]
  IC50: 56 nM
[3]
  IC50: 1280 nM
[4]
  IC50: 1850 nM

## COC(CC1(C)NC(=O)NC1=O)C(=O)N1CCN(c2cc(Cl)cc(Cl)c2)CC1 (stereo not drawn) [compound 439, 5-(3-(4-(3,5-dichlorophenyl)piperazin-1-yl)-2-methoxy-3-oxopropyl)-5-methylimidazolidine-2,4-dione]
[2]
  IC50: 43 nM
[3]
  IC50: 787 nM
[4]
  IC50: > 4000 nM
